For test [1], the system named is deubiquitinating enzymes (DUBs). The test is described as follows: DUB activity (Z-LRGG-AMC cleavage) in lysates of treated MM.1S cells. Format: cell-based. To be noted: for Vmax / effect on DUB activity vs DMSO control / Km / n (Hill coefficient): 16 h. On the procedure: OPM2 cells were maintained in RPMI 1640 media supplemented with 12% FBS, 21.8 mM glucose, 8.6 mM HEPES (pH 7.4) and 1.0 mM sodium pyruvate. MM.1S cell line were maintained in RPMI 1640 media supplemented with 10% FBS. The cells were all cultured in T175 flasks (VWR, Radnor, Pa.). All media components were from Corning, Atlanta, Ga. unless otherwise noted. To test the effect of the ethanolic extract and bioactive compounds on DUB activity, cells were exposed to a 16-h pretreatment with 10 μg/mL of PMI-5011 and 1, 10, 30 μg/mL concentrations of DMC-1, DMC-2, KOE, and davidigenin before lysing the cells for experimentation. All compounds were reconstituted in DMSO to obtain stock concentrations, which was further diluted in culture media to obtain the desired experimental concentrations. For vehicle control, a subpopulation of cells was treated with pure DMSO diluted in a similar manner for the same duration. Upon treatment, cell lysates (both OPM2 and MM.1S) were generated by harvesting 1×10^6 cells/mL, followed by washing 2× and pelleting in phosphate buffered saline (PBS; 137 mM NaCl, 10 mM Na2HPO4, […], and 1.75 mM KH2PO4 at pH 7.4). The cell pellet was re-suspended in an approximately equivalent volume of M-PER to the volume of the cell pellet (1000-2000 μL) then vortexed for 10 min at room temperature. Following this, the mixture was centrifuged at 14,000×g for 15 min at 4° C. and the supernatant transferred to a centrifuge tube and stored on ice until use. Total protein concentration was determined using a NanoDrop 2000c (Thermo Scientific, Madison, Wis.).
The commercial DUB reporter, Z-LRGG-AMC (substrate) (SEQ ID NO: 1) was reconstituted in DMSO to obtain a final stock concentration of 1.44 mM. This stock reporter was diluted as needed in assay buffer (50 mM HEPES, pH 7.4, 150 mM NaCl, 2 mM DTT, and 0.02% Tween-20) supplemented with 4 mg/mL cell lysates (source of DUBs) to reach the desired reporter concentration with a final volume of 100 μL in a 96-well plate. OPM2 and MM.1S cell lysates from different treatments (10 μg/mL of PMI-5011; 1, 10, and 30 μg/mL of DMC-1, DMC-2, KOE, davidigenin and control vehicle DMSO) and C2C12 cell lysates were used to interrogate the effect of the ethanolic extract and selected bioactive compounds on DUB activity. Reporter only and lysates only (noise/background) samples were included in the 96-well plate to confirm that the rates observed were due to DUB-mediated hydrolysis initiated by the cell lysates. The 96-well plate was maintained at a temperature of 30° C. in the dark for the duration of the experiment. The fluorescence signals emitted as a result of DUB-mediated cleavage of AMC (λex=355 nm and λem=460 nm) were quantified using a Wallac 1420 VICTOR2 multilabel HTS counter fluorometry (Perkin Elmer (Waltham, Mass.). Readings were collected every 30 min for 6 h. The normalized signals were obtained by comparing the treatment with noise and background fluorescence values which were then statistically analyzed for their significance. Each data point represents triplicate data points from duplicate experiments. A calibration curve was generated for known concentrations of AMC to correlate the fluorescence signal (AU) to concentration (μM). The approximate concentration of free fluorophore was used to calculate reaction rates (μM/min) for each substrate concentration using linear regression analysis.
All data visualization, interpretation and curve-fittings were performed using Origin Pro (OriginLab, Northampton, MA) while statistical analyses of experimental data were carried out using SAS 9.4 (SAS Solutions). The analyses of enzyme-substrate reactions in all cell lysates started with scatter plotting the fluorometry signals (p,M) measured for each substrate concentration against time (min). Fluorescence signals measured for each substrate concentration remained stable during the first 30 min, indicating there was a 30-minute lag period before reaction initiation. […]

Test [2] relates to DUB. The test is described as follows: Experiment 3: DUB reporter Z-LRGG-AMC with control, 5011 and DMC-2 treated lysates. Format: biochemical. The method, then:
Peptide used was the commercial DUB reporter [Z-LRGG-AMC (SEQ ID NO: 1)] at multiple concentrations [50-150 uM]. 1100 uL protein at 6 mg/mL for each set was given. Final protein concentration in micro-wells was 4 mg/mL. Peptide was incubated with control, 5011 treated, 1 ug/mL DMC-2, 10 ug/mL DMC-2, and 30 ug/mL DMC-2 in DUB assay buffer. Fluorometric readings were taken at different time points in plate reader. Measured at [Em 460/Ex 355]. Fluorescent signals were converted to μM/min using a calibration curve for the AMC fluorophore. Rates were plotted vs. substrate concentration (Z-LRGG-AMC peptide (SEQ ID NO: 1)) (FIG. 10). […] The curves are not perfect logarithmic curves but we can observe the trend. The results with different concentrations of DMC-2 were further plotted. When compared with control: the 5011 treatment enhances DUB activity, DMC-2 being the active part of 5011, also enhances the DUB activity. From FIG. 11, the lowest concentration of DMC2-1 μg/mL has most effect on DUB activity when compared to 30 μg/mL. Without wishing to be bound by theory, some data fluctuation with DMC-2 can occur in the 1 μg/mL range.

In the case of `COc1ccc(CCC(=O)c2ccc(O)cc2O)cc1` [DMC-2, 1-(2,4-dihydroxyphenyl)-3-(4-methoxyphenyl)propan-1-one], the Vmax – broadly, the rate approached at saturating substrate – in test [1] (1 μg/mL) was determined as 22.70 ± 1.71 µM/min; in test [1] (10 μg/mL), 18.13 ± 0.14 µM/min; in test [1] (30 μg/mL), 18.12 ± 7.21 µM/min; in test [1] (Table 2, 1 μg/mL), 0.0227 µM/min; in test [1] (Table 2, 10 μg/mL), 0.0181 µM/min; in test [1] (Table 2, 30 μg/mL), 0.0181 µM/min. The “effect on DUB activity vs DMSO control” value in test [1] (1 μg/mL), in test [1] (10 μg/mL) and in test [1] (30 μg/mL) was “significantly enhanced” throughout. For the same molecule, in test [1] (1, 10, 30 μg/mL, regression fit), the “effect of increasing concentration on DUB activity (normalized Vmax)” value is given as “negative linear effect”. Moreover, the Km – broadly, the substrate concentration at which the rate is half of its maximum – in test [1] (Table 2, 1 μg/mL) is 44.8 µM; in test [1] (Table 2, 10 μg/mL), 39.4 µM; in test [1] (Table 2, 30 μg/mL), 42.2 µM. Further, the “n (Hill coefficient)” value in test [1] (Table 2, 1 μg/mL) is reported as approximately 1.00; in test [1] (Table 2, 10 μg/mL) it was 1.68; in test [1] (Table 2, 30 μg/mL), 1.06. Moreover, in test [2] (compared to 30 μg/mL), the “concentration with most effect on DUB activity” value was 1 µg/mL. For the same molecule, in test [2] (treated lysates 4 mg/mL, DMC-2 at 1, 10, 30 ug/mL), the “effect on DUB activity vs control” value is on record as “enhances”.

For the origin of these results see patent US20230293614A1, “COMPOSITIONS AND METHODS OF TREATING UPS-ASSOCIATED DISEASES” (Board of Supervisors of Louisiana State University and …, priority 2020, published 2023).
